Target: T1, Sortase A (SrtA) (Staphylococcus aureus, UniProt Q2FV99)
T1 construct: SrtAΔN59
Experiment: FRET peptide cleavage assay (Dabcyl-QALPETGEE-Edans) with purified SrtAΔN59, […] CaCl2 in the buffer
Format: biochemical

T1 sequence (Q2FV99 60-206): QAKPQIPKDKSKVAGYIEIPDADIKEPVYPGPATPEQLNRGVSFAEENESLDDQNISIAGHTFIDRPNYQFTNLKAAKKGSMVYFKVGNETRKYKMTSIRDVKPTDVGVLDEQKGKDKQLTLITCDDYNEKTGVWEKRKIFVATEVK

Structure (SMILES): COc1ccc(-c2cc(=O)c3c(O)cc(O)cc3o2)cc1 [acacetin, 5,7-dihydroxy-2-(4-methoxyphenyl)chromen-4-one]
- IC50: 128 µM

From publication PMC6272931, “Acacetin Protects Mice from Staphylococcus aureus Bloodstream Infection by Inhibiting the Activity of Sortase A” (Molecules, 2016)
